Target: T1, BCL6::BCOR (Homo sapiens, UniProt P41182, C67R/C84N/C8Q)
T1 construct: BCL6 (amino acids 5 to 129, with the following changes to the natural protein); made in house; host or cells: E. coli
Assay: BCL6::BCOR ULight TR-FRET assay
Format: binding
Procedure, shortened: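 Biotin-Avi BCL6 (aa 5–129, C8Q/C67R/C84N; E. coli), 1 nM, preincubated 30 min RT with compound (11-point fivefold series, top 100 μM) in HEPES pH 7.3 buffer; then 100 nM ULight-BCOR peptide plus 0.75 nM streptavidin-Eu added, 240 min RT. TR-FRET read, normalized to DMSO controls with/without BCL6.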

Row | Structure (SMILES) | IC50
1 | CNC(=O)COc1cc2cc(Nc3nc(N4CCC5CN(Cc6ccccc6)CC54)ncc3Cl)ccc2n(C)c1=O (stereo not drawn) [Compound I-125] | 10 nM
2 | CCN(CC)CCCCC1CCCN(c2ncc(Cl)c(Nc3ccc4c(c3)cc(OCC(=O)NC)c(=O)n4C)n2)C1 (stereo not drawn) [Compound I-126] | 7 nM
3 | CNC(=O)COc1cc2cc(Nc3nc(N4CCCC(CN5CCCCC5)C4)ncc3Cl)ccc2n(C)c1=O (stereo not drawn) [Compound I-127] | 9 nM
4 | CCCN(CCC)CCC1CCN(c2ncc(Cl)c(Nc3ccc4c(c3)cc(OCC(=O)NC)c(=O)n4C)n2)CC1 [Compound I-128] | 7 nM
5 | C[C@@H]1C[C@H](C)CN(c2ncc(Cl)c(Nc3ccc4c(c3)cc(OCC(=O)N(C)C)c(=O)n4C)n2)C1 [Compound I-133, 2-{[6-({5-chloro-2-[cis-3,5-dimethyl-piperidin-1-yl]pyrimidin-4-yl}amino)-1-methyl-2-oxo-1,2-dihydroquinolin-3-yl]oxy}-N,N-dimethylacetamide] | 29 nM
6 | COCCN(C)C(=O)COc1cc2cc(Nc3nc(N4C[C@H](C)C[C@H](C)C4)ncc3Cl)ccc2n(C)c1=O [Compound I-134] | 77 nM
7 | C[C@@H]1C[C@H](C)CN(c2ncc(Cl)c(Nc3ccc4c(c3)cc(OCC(=O)NCCO)c(=O)n4C)n2)C1 [Compound I-135] | 16 nM
8 | C[C@@H]1C[C@H](C)CN(c2ncc(Cl)c(Nc3ccc4c(c3)cc(OCC(=O)NCC(O)C(F)(F)F)c(=O)n4C)n2)C1 (stereo partly drawn) [Compound I-136] | 269 nM
9 | CCNC(=O)COc1cc2cc(Nc3nc(N4C[C@H](C)C[C@H](C)C4)ncc3Cl)ccc2n(C)c1=O [Compound I-137] | 21 nM
10 | C[C@@H]1C[C@H](C)CN(c2ncc(Cl)c(Nc3ccc4c(c3)cc(OCC(=O)NCCN(C)C)c(=O)n4C)n2)C1 [Compound I-138] | 529 nM
11 | C[C@@H]1C[C@H](C)CN(c2ncc(Cl)c(Nc3ccc4c(c3)cc(OCC(=O)OCCCN(C)C)c(=O)n4C)n2)C1 [Compound I-141] | 9 nM
12 | CNC(=O)COc1cc2cc(Nc3nc(N4CCC(C(=O)NCCOCCN)CC4)ncc3Cl)ccc2n(C)c1=O [Compound I-144] | 22 nM
13 | CNC(=O)COc1cc2cc(Nc3nc(N4CCC(C(=O)N(C)C)CC4)ncc3Cl)cc(OC)c2n(C)c1=O [Compound I-148, 1-[5-chloro-4-({8-methoxy-1-methyl-3-[(methylcarbamoyl)methoxy]-2-oxo-1,2-dihydroquinolin-6-yl}amino)pyrimidin-2-yl]-N,N-dimethylpiperidine-4-carboxamide] | 3 nM
14 | CNC(=O)COc1cc2cc(Nc3nc(-n4nc(C)cc4C)ncc3Cl)ccc2n(C)c1=O [Compound I-149, 2-[(6-{[5-chloro-2-(3,5-dimethyl-1H-pyrazol-1-yl)pyrimidin-4-yl]amino}-1-methyl-2-oxo-1,2-dihydroquinolin-3-yl)oxy]-N-methylacetamide] | 12 nM
15 | C[C@@H]1C[C@H](C)CN(c2ncc(Cl)c(Nc3ccc4c(c3)cc(SCC(=O)O)c(=O)n4C)n2)C1 [Compound I-150, 2-{[6-({5-chloro-2-[cis-3,5-dimethylpiperidin-1-yl]pyrimidin-4-yl}amino)-1-methyl-2-oxo-1,2-dihydroquinolin-3-yl]sulfanyl}acetic acid] | 85 nM
16 | Cc1cc(C)n(-c2ncc(Cl)c(Nc3ccc4c(c3)cc(OCC(=O)O)c(=O)n4C)n2)n1 [Compound I-153, 2-[(6-{[5-chloro-2-(3,5-dimethyl-1H-pyrazol-1-yl)pyrimidin-4-yl]amino}-1-methyl-2-oxo-1,2-dihydroquinolin-3-yl)oxy]acetic acid] | 11 nM
17 | CNC(=O)COc1cc2cc(Nc3nc(N4C[C@H](C)C[C@H](C)C4)ncc3Cl)cnc2n(C)c1=O [Compound I-155] | 9 nM
18 | CNC(=O)COc1cc2cc(Nc3nc(N4CCC(C(=O)N(C)C)CC4)ncc3Cl)c(F)cc2n(C)c1=O [Compound I-156] | 19 nM
19 | CNC(=O)COc1cc2cc(Nc3nc(N4C[C@H](C)C[C@H](C)C4)ncc3Cl)ccc2n(CCN(C)C)c1=O [Compound I-159] | 85 nM
20 | CCn1c(=O)c(OCC(=O)NC)cc2cc(Nc3nc(-n4nc(C)cc4C)ncc3Cl)ccc21 [Compound I-160] | 7 nM
21 | CNC(=O)[C@@H](C)Oc1cc2cc(Nc3nc(N4CCC(C(=O)N(C)C)CC4)ncc3Cl)ccc2n(C)c1=O [Compound I-162] | 98 nM
22 | CNC(=O)COc1cc2cc(Nc3nc(N4CCC(C(=O)N(C)C)CC4)ncc3Cl)c(OC)cc2n(C)c1=O [Compound I-163] | 60 nM
23 | CNC(=O)COc1cc2cc(Nc3nc(N4CCC(C(=O)N(C)C)CC4)ncc3Cl)c(Cl)cc2n(C)c1=O [Compound I-164] | 281 nM
24 | C[C@@H]1C[C@H](C)CN(c2ncc(Cl)c(Nc3ccc4c(c3)cc(/C=C/C(=O)O)c(=O)n4C)n2)C1 [Compound I-165] | 22 nM
25 | CNC(=O)COc1cc2cc(Nc3nc(-n4nc(C(=O)N5CCN(C)CC5)cc4C)ncc3Cl)ccc2n(C)c1=O [Compound I-166, 2-{[6-({5-chloro-2-[5-methyl-3-(4-methylpiperazine-1-carbonyl)-1H-pyrazol-1-yl]pyrimidin-4-yl}amino)-1-methyl-2-oxo-1,2-dihydroquinolin-3-yl]oxy}-N-methylacetamide] | 16 nM
26 | CNC(=O)COc1cc2cc(Nc3nc(N4CCC[C@@H](C(=O)N(C)C5CCN(C)CC5)C4)ncc3Cl)ccc2n(C)c1=O [Compound I-170] | 8 nM
27 | CN(C)C(=O)COc1cc2cc(Nc3nc(N4CCC(C(=O)N(C)C)CC4)ncc3Cl)ccc2n(C)c1=O [Compound I-171] | 39 nM
28 | C[C@@H]1C[C@H](C)CN(c2ncc(Cl)c(Nc3ccc4c(c3)cc(OCP(C)(C)=O)c(=O)n4C)n2)C1 [Compound I-172, 6-({5-chloro-2-[cis-3,5-dimethylpiperidin-1-yl]pyrimidin-4-yl}amino)-3-[(dimethylphosphoryl)-methoxy]-1-methyl-1,2-dihydroquinolin-2-one] | 187 nM

The next lines start with the values.

Row | IC50 | Structure (SMILES)
29 | 5 nM | C[C@@H]1C[C@H](C)CN(c2ncc(Cl)c(Nc3ccc4c(c3)cc(OCC(=O)O)c(=O)n4C)n2)C1 [Compound I-131, 2-{[6-({5-chloro-2-[cis-3,5-dimethylpiperidin-1-yl]pyrimidin-4-yl}amino)-1-methyl-2-oxo-1,2-dihydroquinolin-3-yl]oxy}-acetic acid]
30 | 5 nM | Cn1c(=O)c(OCC(=O)O)cc2cc(Nc3nc(N4CCC(F)CC4)ncc3Cl)ccc21 [Compound I-132, 2-[(6-{[5-chloro-2-(4-fluoropiperidin-1-yl)pyrimidin-4-yl]amino}-1-methyl-2-oxo-1,2-dihydro-quinolin-3-yl)oxy]acetic acid]
31 | 6 nM | C[C@@H]1C[C@H](C)CN(c2ncc(Cl)c(Nc3ccc4c(c3)cc(OCC(=O)OCCN(C)C)c(=O)n4C)n2)C1 [Compound I-139, 2-(dimethylamino)ethyl 2-{[6-({5-chloro-2-[cis-3,5-dimethylpiperidin-1-yl]pyrimidin-4-yl}amino)-1-methyl-2-oxo-1,2-dihydroquinolin-3-yl]oxy}acetate]
32 | 5 nM | CC(CN(C)C)OC(=O)COc1cc2cc(Nc3nc(N4C[C@H](C)C[C@H](C)C4)ncc3Cl)ccc2n(C)c1=O (stereo partly drawn) [Compound I-140]
33 | 5 nM | C[C@@H]1C[C@H](C)CN(c2ncc(Cl)c(Nc3ccc4c(c3)cc(OCC(=O)OCCN3CCOCC3)c(=O)n4C)n2)C1 [Compound I-142]
34 | 6 nM | CNC(=O)COc1cc2cc(Nc3nc(N4CCC(C(=O)N(C)CCOCCN)CC4)ncc3Cl)ccc2n(C)c1=O [Compound I-143]
35 | 6 nM | CNC(=O)COc1cc2cc(Nc3nc(N4CCC(C(=O)NCCCCCN)CC4)ncc3Cl)ccc2n(C)c1=O [Compound I-145]
36 | 6 nM | CNC(=O)COc1cc2cc(Nc3nc(N4CCC(C(=O)NCCCCCCN)CC4)ncc3Cl)ccc2n(C)c1=O [Compound I-146]
37 | 5 nM | CNC(=O)COc1cc2cc(Nc3nc(N4CCC(C(=O)NCCOCCOCCN)CC4)ncc3Cl)ccc2n(C)c1=O [Compound I-147]
38 | 6 nM | CNC(=O)COc1cc2cc(Nc3nc(N4CCC(C(=O)N(C)C)CC4)ncc3Cl)ccc2n(CCCO)c1=O [Compound I-151, 1-(5-chloro-4-{[1-(3-hydroxypropyl)-3-[(methyl-carbamoyl)methoxy]-2-oxo-1,2-dihydroquinolin-6-yl]amino}pyrimidin-2-yl)-N,N-dimethyl-piperidine-4-carboxamide]
39 | 5 nM | CN(C)C(=O)C1CCN(c2ncc(Cl)c(Nc3ccc4c(c3)cc(OCC(=O)O)c(=O)n4C)n2)CC1 [Compound I-152, 2-{[6-({5-chloro-2-[4-(dimethylcarbamoyl)piperidin-1-yl]pyrimidin-4-yl}amino)-1-methyl-2-oxo-1,2-dihydroquinolin-3-yl]oxy}acetic acid]
40 | 5 nM | CNC(=O)COc1cc2cc(Nc3nc(N4CCC(C(=O)N(C)C)CC4)ncc3Cl)ccc2n(C)c1=O [Compound I-157]
41 | 6 nM | CNC(=O)COc1cc2cc(Nc3nc(N4CCC(C(=O)N(C)C)CC4)ncc3Cl)ccc2n(C(C)C)c1=O [Compound I-158]
42 | 5 nM | CCn1c(=O)c(OCC(=O)NC)cc2cc(Nc3nc(N4CCC(C(=O)N(C)C)CC4)ncc3Cl)ccc21 [Compound I-161]
43 | 4 nM | CNC(=O)COc1cc2cc(Nc3nc(N4CCC[C@@H](C(=O)O)C4)ncc3Cl)ccc2n(C)c1=O [Compound I-167, (3R)-1-[5-chloro-4-({1-methyl-3-[(methylcarbamoyl)methoxy]-2-oxo-1,2-dihydroquinolin-6-yl}-amino)pyrimidin-2-yl]piperidine-3-carboxylic acid]
44 | 6 nM | CNC(=O)COc1cc2cc(Nc3nc(N4CCC[C@@H](C(=O)N(C)C)C4)ncc3Cl)ccc2n(C)c1=O [Compound I-168, (3R)-1-[5-chloro-4-({1-methyl-3-[(methylcarbamoyl)methoxy]-2-oxo-1,2-dihydroquinolin-6-yl}amino)pyrimidin-2-yl]-N,N-dimethylpiperidine-3-carboxamide]
45 | 6 nM | CNC(=O)COc1cc2cc(Nc3nc(N4CCC[C@@H](C(=O)N5CCN(C)CC5)C4)ncc3Cl)ccc2n(C)c1=O [Compound I-169]
